Where two headings read alike, the source gives them in different places. Values belong to the molecule of their own block, whether it stands above or below them.
Legend:
[1] = set-up: species or system Wistar rats; conditions: rat, in vivo
[2] = In vivo vancomycin detection in ISF versus plasma after intravenous vancomycin; set-up: species or system Wistar rats; conditions: Wistar, rat, 1 mg/rat; for concentration at 5 min: 5 min after intravenous injection; for concentration at 30 min / concentration at 60 min: intravenous; for concentration at 30 min: 30 min following injection; for concentration at 60 min: 60 min after injection
Protocol: In vivo collection of ISF and glucose and vancomycin detection: All animal experiments were approved by the Animal Care and Use Committee of University of California, Los Angeles, and procedures for animals were performed in accordance with the relevant guidelines and regulations. Wistar rats (4-week-old, approximately 70-80 g) were anesthetized with 50 mg/kg sodium pentobarbital. The dorsal hair of each rat was shaved. After the initial mass of the GelMA patch 10 was weighed, it was applied to the dorsal skin of the rat using the thumb and index finger. Gauze was used to fix the patches 10 on the skin. ten minutes later, the patch 10 was removed and the final mass was recorded. To quantify the concentration of the delivered molecules, the wet patch 10 was transferred into a centrifuge tube with 200 μL of DI water. After centrifugation at 12000 rpm for 10 min, the solution in the tube was transferred to be tested. In addition, blood samples were also collected from the tail vein for glucose detection and the plasma was isolated via centrifugation for vancomycin detection. For histopathology, the skin was harvested and fixed in 10% neutral buffered formalin (BBC Biochemical, WA, USA), processed by a standard method, and embedded in paraffin. 4 μm in thickness tissue sections were stained with hematoxylin and eosin (H&E, BBC Biochemical) to confirm that GelMA microneedles 14 effectively penetrate the skin.
In the glucose detection experiment, the rats were intravenously injected with 1 mL of 0.2 g/mL glucose in saline. The glucose concentrations in ISF were tested using Glucose Assay Kit (Sigma) and the glucose levels in blood were tested using a glucometer (Clarity Diagnostics, US). In the vancomycin detection experiment, the rats were intravenously injected with 1 mL vancomycin at a concentration of 1 mg/mL in saline. The vancomycin concentration in ISF and plasma samples was also quantified by LC-MS/MS analysis (mentioned above).

[3] = interstitial fluid (ISF), read-out: vancomycin concentration in ISF
[4] = plasma, read-out: vancomycin concentration in plasma

- skin recovery time after removing the patch [1]: ≤ 20 min
Molecule: gelatin methacryloyl (GelMA) [GelMA microneedle patch]

Molecule: CN[C@H](CC(C)C)C(=O)N[C@H]1C(=O)N[C@@H](CC(N)=O)C(=O)N[C@H]2C(=O)N[C@H]3C(=O)N[C@H](C(=O)N[C@H](C(=O)O)c4cc(O)cc(O)c4-c4cc3ccc4O)[C@H](O)c3ccc(c(Cl)c3)Oc3cc2cc(c3O[C@@H]2O[C@H](CO)[C@@H](O)[C@H](O)[C@H]2O[C@H]2C[C@](C)(N)[C@H](O)[C@H](C)O2)Oc2ccc(cc2Cl)[C@H]1O [vancomycin]
- concentration at 5 min [2, 3]: 5930 ± 180 ng/mL
- concentration at 30 min [2, 3]: ~6500 ng/mL
- concentration at 60 min [2, 3]: ~4000 ng/mL
- concentration at 5 min [2, 4]: 8270 ± 130 ng/mL
- concentration at 30 min [2, 4]: ~6500 ng/mL
- concentration at 60 min [2, 4]: ~4000 ng/mL
